Source: patent US8980848B2, “Flavonoid dimers and their use” (The Hong Kong Polytechnic University, priority 2010, dated 2015)

Assays:
[1] = Tumor cell line cytotoxicity of flavonoid dimers, LCC6MDR; type: cell-based, human; conditions: human, LCC6MDR cells, IC50 of compound alone
Summary of the method: (§1)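 LCC6, LCC6MDR and L929 cells seeded at 1×10^4 cells/well and exposed to graded doses of flavonoid dimers. Incubation 72 hrs at 37° C., 5% CO2. Read-out: % survivors.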

[2] = Tumor cell line cytotoxicity of flavonoid dimers, LCC6; type: cell-based, human; conditions: human, LCC6 cells, IC50 of compound alone
Summary of the method: as §1

[3] = Cytotoxicity of flavonoid dimers, L929 mouse fibroblast; type: cell-based; conditions: mouse, L929 fibroblast cells, IC50 of compound alone, 72 hrs, mouse fibroblast
Summary of the method: as §1

[4] = tested on: LdAG83 promastigotes (wild type); experiment: In vitro anti-promastigote activity, LdAG83; type: cell-based, Leishmania donovani; conditions: Leishmania donovani, 72 h, read-out: Anti-promastigotes activity (IC50, μM) LdAG83
Experimental: (§2) Cell Lines and Cell Culture. Promastigotes of Leishmania donovani (wild type LdAG83, pentamidine-resistant LdAG83-PentR50, and SSG-resistant Ld39) and Leishmania major [MHOM/IL/67/JERICHO II (Lm50122), from ATCC] were used in this study.
(§3) In Vitro Anti-Promastigote Activity. The viability of promastigotes was determined by the Cell Titer 96° Aqueous Assay (Promega) that employs a tetrazolium compound (MTS, 2-(4,5-Dimethylthiazol-2-yl-)-5-[3-(carboxymethoxy)phenyl]-2-(4-sulfophenyl)-2H-tetrazolium) and electron coupling reagent, phenazine methosulfate (PMS).^7 Promastigotes were seeded into 96-well flat bottom microtiter plate at 1×10^5 cells per well in a final volume of 100 μL medium and incubated with a series concentration of synthetic flavonoid dimers or known antileishmanials. The parasites were incubated at 27° C. for 72 hrs. Fresh solution of 2 mg/mL MTS and 0.92 mg/mL PMS were prepared in a ratio of 20:1 (MTS:PMS). After 72 hrs incubation, 10 μL of MTS:PMS mixture was added into each well of microtiter plate. The plate was then incubated at 27° C. for 4 hrs for color development. After 4 hrs incubation, the OD values were determined at 490 nm using automatic microtiter plate reader (Bio-Rad).

[5] = tested on: Ld39 promastigotes (SSG-resistant); experiment: In vitro anti-promastigote activity, Ld39; type: cell-based, Leishmania donovani; conditions: Leishmania donovani, 72 h, read-out: Anti-promastigotes activity (IC50, μM) Ld39
Experimental: as §2, §3

Lm50122 promastigotes = experiment: In vitro anti-promastigote activity, Lm50122; type: cell-based, Leishmania major; conditions: Leishmania major, 72 h, read-out: Anti-promastigotes activity (IC50, μM) Lm50122
Experimental: as §2, §3

Raw264.7 cells = experiment: Cytotoxicity, mouse macrophage Raw264.7; type: cell-based; conditions: Mus musculus, RAW264.7, 72 h
Experimental: (§4) (a) Mouse Macrophage Raw 264.7 and Primary Mouse PEM Cells. The cytotoxicity assay of reference antileishmanial compounds and the compounds of this invention was performed against mouse macrophage cell line, Raw 264.7 and primary mouse PEM cells in order to calculate the therapeutic index (IC50 value for cytotoxicity of the compounds divided by IC50 value for antileishmanial activity of the compounds). The cells were grown in supplemented DMEM media in an atmosphere of 95% air with 5% CO2 at 37° C. In brief, Raw264.7 cells and PEM cells were seeded into 96-well flat bottom microtiter plate at 1×10^4cells and 2×10^4 cells per well in a final volume of 100 μL media, respectively. A graded dose of flavonoid dimers or antileishmanials was added into wells. The plate was incubated at 37° C. for 72 hrs at the atmosphere 5% CO2 in the air. The % of survivors was determined.

Pgp (LCC6MDR cells) = Pgp (LCC6MDR cells) (Homo sapiens, UniProt P08183); experiment: Cell proliferation assay: Pgp-modulating activity, reversal of anticancer drug resistance in LCC6MDR cells; conditions: for RF (Relative Fold), cpd at 0.5 μM: RF = (IC50 without modulator)/(IC50 with 0.5 μM modulator); for RF (Relative Fold), cpd at 0.5 μM / RF (Relative Fold), cpd at 1 μM: paclitaxel; for RF (Relative Fold), cpd at 0.5 μM / EC50 / RF (Relative Fold), cpd at 1 μM: LCC6MDR; for EC50: EC50 of compounds for reversing anticancer drug resistance (nM); for Therapeutic index: IC50 of compounds for L929/EC50 of compounds for lowering paclitaxel drug resistance; for RF (Relative Fold), cpd at 1 μM: RF = (IC50 without modulator)/(IC50 with 1.0 μM modulator)
Experimental: Cell Proliferation Assay. 6,000 cells of LCC6 or LCC6MDR and anticancer drugs (paclitaxel, vinblastine, vincristine, doxorubicin and mitoxantrone) were mixed with or without modulators to a final volume of 200 μL in each well of 96-well plates. […] The plates were then incubated for 5 days at 37° C. […] IC50 values were calculated from the dose-response curves of MTS assays (Prism 4.0).

PEM cells = experiment: Cytotoxicity, primary mouse peritoneal elicited macrophage (PEM); type: cell-based
Experimental: as §4

Ld39 amastigotes = experiment: In vitro anti-amastigote activity, Ld39 amastigotes in mouse PEM; conditions: Leishmania donovani, in Mus musculus, 72 h, read-out: Ld39 (IC50, mM)
Experimental: Peritoneal elicited macrophages (PEM) from mouse were obtained as previously described. A round cover slip (12 mm in diameter) was placed into each well of 24-well culture plate. Mouse macrophages were resuspended in supplemented DMEM media containing 10% heat inactivated fetal bovine serum (v/v), 100 U/mL penicillin and 100 μg/mL streptomycin and seeded into each well at a cell density of 1×10^5 cells per 500 μL. Macrophages were allowed to attach overnight and the non-adherent cells were removed by gentle washing twice with unsupplemented DMEM media. […] Non-internalized promastigotes were removed by washing with unsupplemented DMEM media for two times. Infected macrophages were further incubated in 500 μL supplemented DMEM media in the presence or absence of flavonoid dimers or known antileishmanials for 72 hrs at 37° C. After incubation, the cover slips were stained with Giemsa and the amastigotes inside each macrophage (100 macrophages per treatment) were counted under microscope. The percentage of macrophages infected and number of amastigotes per 100 macrophages was enumerated.
The % of infected macrophage and the number of amastigotes per 100 macrophages were counted by staining with Giemsa.

[6] = Mus musculus, Macrophage, Table 7, cytotoxicity
[7] = cytotoxicity, primary mouse macrophage, 72 hrs

Sequence of Pgp (LCC6MDR cells) (P08183 whole entry): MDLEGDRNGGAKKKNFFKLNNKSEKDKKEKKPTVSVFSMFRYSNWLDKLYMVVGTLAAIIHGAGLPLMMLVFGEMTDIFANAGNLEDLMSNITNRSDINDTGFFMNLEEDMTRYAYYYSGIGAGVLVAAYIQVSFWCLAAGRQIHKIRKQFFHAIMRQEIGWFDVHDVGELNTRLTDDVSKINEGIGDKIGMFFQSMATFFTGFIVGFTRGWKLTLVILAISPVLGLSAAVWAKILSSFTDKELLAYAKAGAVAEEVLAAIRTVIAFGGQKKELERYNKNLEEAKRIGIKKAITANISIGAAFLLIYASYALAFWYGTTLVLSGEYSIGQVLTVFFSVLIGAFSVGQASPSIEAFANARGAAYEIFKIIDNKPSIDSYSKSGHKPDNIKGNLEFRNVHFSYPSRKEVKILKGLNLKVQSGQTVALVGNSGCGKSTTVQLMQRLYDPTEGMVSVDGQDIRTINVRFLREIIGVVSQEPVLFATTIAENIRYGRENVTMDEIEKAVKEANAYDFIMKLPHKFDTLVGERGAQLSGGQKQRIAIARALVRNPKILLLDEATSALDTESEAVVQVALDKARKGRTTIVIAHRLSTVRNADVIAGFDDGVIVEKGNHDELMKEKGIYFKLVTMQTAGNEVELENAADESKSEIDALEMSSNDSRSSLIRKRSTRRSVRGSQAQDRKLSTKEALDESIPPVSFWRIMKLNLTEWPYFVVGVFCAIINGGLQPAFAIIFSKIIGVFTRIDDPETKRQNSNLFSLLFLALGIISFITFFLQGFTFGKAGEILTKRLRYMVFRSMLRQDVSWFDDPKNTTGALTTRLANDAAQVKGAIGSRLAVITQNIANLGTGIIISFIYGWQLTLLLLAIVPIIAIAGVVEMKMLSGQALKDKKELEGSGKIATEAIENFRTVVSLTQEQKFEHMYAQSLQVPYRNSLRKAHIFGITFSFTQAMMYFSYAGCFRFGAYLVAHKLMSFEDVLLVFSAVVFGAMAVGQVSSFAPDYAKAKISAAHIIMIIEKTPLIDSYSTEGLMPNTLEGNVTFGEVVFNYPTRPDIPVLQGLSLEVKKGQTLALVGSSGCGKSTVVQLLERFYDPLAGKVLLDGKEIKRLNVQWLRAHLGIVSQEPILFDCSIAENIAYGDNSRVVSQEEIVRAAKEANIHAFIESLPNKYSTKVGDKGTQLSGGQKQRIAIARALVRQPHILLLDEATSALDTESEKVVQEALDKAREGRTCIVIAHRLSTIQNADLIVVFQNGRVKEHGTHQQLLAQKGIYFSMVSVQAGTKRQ

SMILES	IC50 at 72 h [1]	IC50 at 72 h [2]	IC50 at 72 h [3]	RF (Relative Fold), cpd at 0.5 μM (Pgp (LCC6MDR cells))	melting point	EC50 (Pgp (LCC6MDR cells); Paclitaxel)	Therapeutic index (Pgp (LCC6MDR cells))	RF (Relative Fold), cpd at 1 μM (Pgp (LCC6MDR cells))	further results
COC(=O)c1ccc(CN(CCOCCOc2ccc(-c3cc(=O)c4ccccc4o3)cc2)CCOCCOc2ccc(-c3cc(=O)c4ccccc4o3)cc2)cc1 [Compound 20, 1,13-Bis[4′-(4H-chromen-4-on-2-yl)phenyl]-N-(4-methoxycarbonylbenzyl)-1,4,10,13-tetraoxa-7-azamidecane]	64.8 ± 14.1 µM	33.3 ± 10.8 µM	11.4 ± 4.4 µM	(2.1)					IC50 [4]: > 100 µM; IC50 [5]: > 100 µM; IC50 (Lm50122 promastigotes): > 100 µM; IC50 (Raw264.7 cells): 45.7 ± 19.1 µM
CS(=O)(=O)N(CCOCCOc1ccc(-c2cc(=O)c3ccccc3o2)cc1)CCOCCOc1ccc(-c2cc(=O)c3ccccc3o2)cc1 [Compound 24, 1,13-Bis[4′-(4H-chromen-4-on-2-yl)phenyl]-N-(methanesulfonyl)-1,4,10,13-tetraoxa-7-azamidecane]	42.6 ± 5.4 µM	27.5 ± 8.4 µM	13.4 ± 3.9 µM	(12.8)					IC50 [4]: 0.5 µM; IC50 [5]: 1.5 µM; IC50 (Raw264.7 cells): 96 ± 4 µM
CN(C)c1cccc2c(S(=O)(=O)N(CCOCCOc3ccc(-c4cc(=O)c5ccccc5o4)cc3)CCOCCOc3ccc(-c4cc(=O)c5ccccc5o4)cc3)cccc12 [Compound 25b, 1,13-Bis[4′-(4H-chromen-4-on-2-yl)phenyl]-7-(dansyl)-1,4,10,13-tetraoxa-7-azamidecane]	> 100 µM	> 100 µM		(1.4)	72 to 74 °C				
O=c1cc(-c2ccc(OCCOCCN(CCCc3ccccc3)CCOCCOc3ccc(-c4cc(=O)c5ccccc5o4)cc3)cc2)oc2ccccc12 [Compound 26, 1,13-Bis[4′-(4H-chromen-4-on-2-yl)phenyl]-N-(3-phenylpropyl)-1,4,10,13-tetraoxa-7-azamidecane]	> 100 µM	> 100 µM	9.5 µM	(12.5)		250 nM	38.0		IC50 [4]: 8.9 µM; IC50 [5]: 18.4 µM; IC50 (Raw264.7 cells): 85 µM
O=c1cc(-c2ccc(OCCOCCN(CCOCCOc3ccc(-c4cc(=O)c5ccccc5o4)cc3)Cc3ccc(F)cc3)cc2)oc2ccccc12 [Compound 34, 1,13-Bis[4′-(4H-chromen-4-on-2-yl)phenyl]-7-(4-fluorobenzyl)-1,4,10,13-tetraoxa-7-azamidecane]	> 83 µM	> 100 µM	19.7 µM	(31.2)	119 to 122 °C	255 ± 5 nM	77.3		
O=c1cc(-c2ccc(OCCOCCN(CCOCCOc3ccc(-c4cc(=O)c5ccccc5o4)cc3)Cc3ccc(F)c(F)c3)cc2)oc2ccccc12 [Compound 38, 1,13-Bis[4′-(4H-chromen-4-on-2-yl)phenyl]-7-(3,4-difluorobenzyl)-1,4,10,13-tetraoxa-7-azamidecane]	33.6 ± 4.3 µM	32.5 ± 11 µM	42.2 ± 2.1 µM	(49.3)	96 to 98 °C				
O=c1cc(-c2ccc(OCCOCCN(CCOCCOc3ccc(-c4cc(=O)c5ccccc5o4)cc3)Cc3ccc4c(c3)OCO4)cc2)oc2ccccc12 [Compound 42e, 1,13-Bis[4′-(4H-chromen-4-on-2-yl)phenyl]-7-(5-piperonyl)-1,4,10,13-tetraoxa-7-azamidecane]	> 100 µM	> 100 µM	> 100 µM	(31.2)	69 to 70 °C	204 ± 20 nM	>490.2	(117.8)	
O=c1cc(-c2ccc(OCCOCCN(CCOCCOc3ccc(-c4cc(=O)c5ccccc5o4)cc3)Cc3ccc(Cl)cc3)cc2)oc2ccccc12 [Compound 49, 1,13-Bis[4′-(4H-chromen-4-on-2-yl)phenyl]-7-(4-chlorobenzyl)-1,4,10,13-tetraoxa-7-azamidecane]	> 100 µM	> 100 µM	> 78 µM	(41.4)	81 to 82 °C	177 ± 14 nM	>440.7	(95.7)	
O=c1cc(-c2ccc(OCCOCCN(CCOCCOc3ccc(-c4cc(=O)c5ccccc5o4)cc3)Cc3ccc(-c4ccccc4)cc3)cc2)oc2ccccc12 [Compound 57, 1,13-Bis[4′-(4H-chromen-4-on-2-yl)phenyl]-7-(4-phenylbenzyl)-1,4,10,13-tetraoxa-7-azamidecane]	> 62 µM	> 99 µM	> 69 µM	(102.1)	106 to 107 °C	72 ± 21 nM	>958.3	(117.8)	EC50 (Pgp (LCC6MDR cells); Daunorubicin): 76 ± 14 nM; EC50 (Pgp (LCC6MDR cells); Doxorubicin): 94 ± 1 nM; EC50 (Pgp (LCC6MDR cells); Mitoxantrone): 65 ± 19 nM; EC50 (Pgp (LCC6MDR cells); Vinblasinte, vinblastine): 38 ± 10 nM; EC50 (Pgp (LCC6MDR cells); Vincristine): 83 ± 12 nM
O=c1cc(-c2ccc(OCCOCCN(CCOCCOc3ccc(-c4cc(=O)c5ccccc5o4)cc3)Cc3cccc4ccccc34)cc2)oc2ccccc12 [Compound 59, 1,13-Bis[4′-(4H-chromen-4-on-2-yl)phenyl]-7-(1-naphthalenylmethyl)-1,4,10,13-tetraoxa-7-azamidecane]	> 100 µM	> 100 µM	> 100 µM	(2.2)	96 to 97 °C			(80.6)	
O=C(c1ccccc1)c1ccc(CN(CCOCCOc2ccc(-c3cc(=O)c4ccccc4o3)cc2)CCOCCOc2ccc(-c3cc(=O)c4ccccc4o3)cc2)cc1 [Compound 61, 1,13-Bis[4′-(4H-chromen-4-on-2-yl)phenyl]-7-(4-benzoylbenzyl)-1,4,10,13-tetraoxa-7-azamidecane]	> 100 µM	> 91 µM	> 100 µM	(1.9)	71 to 72 °C			(30.0)	
O=c1cc(-c2ccc(O)c(O)c2)oc2cc(O)cc(O)c12 [Luteolin, luteolin]									IC50 (PEM cells; [6]): 77.7 ± 7.7 µM; IC50 (PEM cells; [7]): 77.7 ± 7.7 µM; IC50 (Ld39 amastigotes): 0.0077 ± 0.0036 mM
O=c1c(O)c(-c2ccc(O)c(O)c2)oc2cc(O)cc(O)c12 [Quercetin, quercetin]									IC50 (PEM cells; [6]): > 100 µM; IC50 (PEM cells; [7]): > 100 µM; IC50 (Ld39 amastigotes): 0.006 ± 0.0011 mM
